Patent publication US8652785B2, “Method of screening a modulator of endothelial NO synthase comprising the use of heme binding protein 1” (Sanofi, priority 2008, dated 2014)
Read-outs that look alike come from different tables or passages of the source. Each block holds one molecule with its values, some of them ahead of it.

Columns and labels:
[1] = biological target: T1, Transcription factor EB (TFEB) (Homo sapiens, UniProt P19484); test: Protein microarray (ProtoArray) binding, TFEB
T1 construct: purchased Invitrogen, Karlsruhe, Germany ProtoArrays v3.0
T1 sequence (P19484 1-476): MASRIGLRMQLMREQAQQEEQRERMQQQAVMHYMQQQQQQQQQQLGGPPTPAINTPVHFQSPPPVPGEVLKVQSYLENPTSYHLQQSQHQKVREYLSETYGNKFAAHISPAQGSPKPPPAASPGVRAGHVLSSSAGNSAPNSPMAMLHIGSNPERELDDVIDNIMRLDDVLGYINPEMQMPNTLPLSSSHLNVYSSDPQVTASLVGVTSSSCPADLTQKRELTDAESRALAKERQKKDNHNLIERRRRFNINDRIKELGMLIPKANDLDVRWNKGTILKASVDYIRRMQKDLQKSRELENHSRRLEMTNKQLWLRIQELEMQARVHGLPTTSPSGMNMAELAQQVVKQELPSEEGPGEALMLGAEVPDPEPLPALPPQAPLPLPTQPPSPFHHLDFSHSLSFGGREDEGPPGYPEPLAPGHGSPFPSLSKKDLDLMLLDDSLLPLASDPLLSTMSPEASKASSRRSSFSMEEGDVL
Description: (§1) The protein-microarray experiments were carried out using ProtoArrays® v3.0 (Invitrogen, Karlsruhe, Germany). These were nitrocellulose-coated glass plates, on which approx. 5000 recombinant human proteins, in duplicates, were immobilized.
(§2) In the first step the microarrays were incubated for one hour at 4° C. with a MOPS blocking buffer with 0.1% (v/v) Igepal and 1% (w/v) BSA. Then the arrays with the biotin-labeled eNOS transcription enhancers A012 and A013, sometimes in the presence of the unlabeled substance 9257, were incubated at 4° C. for 90 min without shaking, in various test conditions in a MOPS sample buffer with 1% (v/v) Igepal and 1% (w/v) BSA.
(§3) After washing three times, in each case for 1 min, with pure MOPS sample buffer on ice, they were incubated for 30 min with IRDye®680-labeled streptavidin diluted 1/1000 in MOPS sample buffer away from the light, also on ice. IRDye®680- and IRDye®800-labeled secondary antibodies, which recognize the constant Fc-part of the primary antibodies, were used exclusively for the immunodetection of certain proteins. […] The advantage of this wavelength range is the very good signal-to-noise ratio on account of low intrinsic fluorescence. Detection employs the ODYSSEY™ from LI-COR Biosciences (Bad Homburg, Germany). […]
(§4) These labeling (A) and competition tests (B) were evaluated by quantifying the fluorescence signals.

eNOS promoter = test: eNOS-transcription test (eNOS-promoter luciferase reporter cell line EA.csr03); type: cell-based; settings: Homo sapiens; EA.csr03 cells; read-out: Cellular EC50 in the eNOS-transcription test
Description: The EA.csr03 cells are cells of a stable eNOS-promoter luciferase cell line. It was obtained by transfection of EA.hy926 cells with a firefly luciferase reporter construct, with a 3.5 kb fragment of the eNOS-promoter added. Cultivation of these cells was carried out with IMDM with GlutaMAX™ I supplemented with 100 U/ml penicillin, 100 μg/ml streptomycin, 10% FCS and 0.4 mg/ml geneticin as selection antibiotic. The EA.hy926 cells are a stable human cell line, which was obtained by fusion of HUVEC with the human […] cell line A549. This cell line is characterized by expression of specific endothelial cell markers, e.g. the “van-Willebrand factor”. The cells used are an original culture of Cora Jean Edgell of passage 32. The cells were cultivated in IMDM with GlutaMAX™ I supplemented with 100 U/ml penicillin, 100 μg/ml streptomycin, HAT Hybri-Max™ medium additive (hypoxanthine, aminopterin and thymidine) and Biotect protective medium.
For transcription test for eNOS promoter activation, 20 000 cells per well of the reporter cell line EA.csr03 were sown in a white 96-well cell culture plate. After 24 hours, various dilutions of the substance in cell culture medium were prepared starting from DMSO stock solutions and were preincubated for 10 min at 37° C. on a water bath. Then these incubation media (100 μl/well) were added to the cells. After incubation for 18 hours, the cells were washed twice with DPBS (100 μl/well) and luciferase lysis buffer (50 μl/well) was added. After 10 min, the solubilized luciferase-substrate luciferin (100 μl/well) was added to the cell lysates. During the luciferase-catalyzed oxidation of luciferin to oxyluciferin there is release of chemiluminescence. […] The light units released were measured in the Genios microplate reader from Tecan Deutschland (Crailsheim, Germany).

[2] = biological target: T2, AMP-activated protein kinase, catalytic subunit alpha 1 (PRKAA1) (Homo sapiens, UniProt Q13131); test: Protein microarray (ProtoArray) binding, PRKAA1
T2 construct: purchased Invitrogen, Karlsruhe, Germany ProtoArrays v3.0
Description: as §1, §2, §3, §4

[3] = test system: recombinant human proteins on ProtoArrays v3.0; test: Protein microarray (ProtoArray) labeling and competition, qualitative; type: binding; settings: substance 100 μM
Description: as §1, §2
as §3, with “Germany). With this instrument it is possible to detect both emission wavelengths on one membrane simultaneously.” for “Germany).”

[4] = biological target: T3, TBP-related Protein 1 (TBPL1) (Homo sapiens, UniProt P62380); test: Protein microarray (ProtoArray) binding, TBPL1
T3 construct: purchased Invitrogen, Karlsruhe, Germany ProtoArrays v3.0
T3 sequence (P62380 1-186): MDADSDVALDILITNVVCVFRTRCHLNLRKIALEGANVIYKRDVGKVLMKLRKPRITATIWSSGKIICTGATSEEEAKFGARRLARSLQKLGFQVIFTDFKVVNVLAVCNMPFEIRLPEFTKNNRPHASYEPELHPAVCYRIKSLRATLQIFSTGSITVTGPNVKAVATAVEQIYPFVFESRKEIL
Description: as §1, §2, §3, §4

[5] = biological target: T4, Phosphoserine aminotransferase 1 (PSAT1) (Homo sapiens, UniProt Q9Y617); test: Protein microarray (ProtoArray) binding, PSAT1
T4 construct: purchased Invitrogen, Karlsruhe, Germany ProtoArrays v3.0
T4 sequence (Q9Y617 1-370): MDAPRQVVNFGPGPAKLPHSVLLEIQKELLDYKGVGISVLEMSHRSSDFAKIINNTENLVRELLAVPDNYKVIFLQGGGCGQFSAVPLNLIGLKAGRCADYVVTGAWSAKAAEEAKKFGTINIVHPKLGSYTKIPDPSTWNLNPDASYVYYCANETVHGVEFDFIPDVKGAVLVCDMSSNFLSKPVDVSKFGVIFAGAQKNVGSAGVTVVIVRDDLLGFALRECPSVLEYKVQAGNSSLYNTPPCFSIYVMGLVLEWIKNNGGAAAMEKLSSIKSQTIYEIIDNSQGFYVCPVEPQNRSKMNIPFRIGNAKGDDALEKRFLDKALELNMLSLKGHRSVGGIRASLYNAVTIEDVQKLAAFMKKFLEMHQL
Description: as §1, §2, §3, §4

[6] = biological target: T5, Mitogen-activated protein kinase 7 (MAPK7) (Homo sapiens, UniProt Q13164); test: Protein microarray (ProtoArray) binding, MAPK7
T5 construct: purchased Invitrogen, Karlsruhe, Germany ProtoArrays v3.0
Description: as §1, §2, §3, §4

[7] = biological target: T6, Cytidinemonophosphate-N-acetylneuraminic acid-synthetase (CMAS) (Homo sapiens, UniProt Q8NFW8); test: Protein microarray (ProtoArray) binding, CMAS
T6 construct: purchased Invitrogen, Karlsruhe, Germany ProtoArrays v3.0
Description: as §1, §2, §3, §4

human Hexahis-HEBP1 = biological target: T7, human Hexahis-HEBP1 (Homo sapiens, UniProt Q9NRV9); test: Binding studies by quenching of tryptophan fluorescence
T7 construct: Hexahis (6xHis) (N); made in house; host or cells: E. coli BL21 Star (DE3)
T7 sequence (Q9NRV9 1-189): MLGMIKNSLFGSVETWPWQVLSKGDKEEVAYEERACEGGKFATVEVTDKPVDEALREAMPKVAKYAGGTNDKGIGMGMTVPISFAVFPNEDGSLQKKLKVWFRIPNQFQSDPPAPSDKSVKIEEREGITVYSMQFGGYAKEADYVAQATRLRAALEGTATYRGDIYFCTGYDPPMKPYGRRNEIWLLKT
Source text: For carrying out binding studies with human HEBP1, it is possible to utilize the intrinsic fluorescence of the tryptophan residues at λ=340 nm, using an excitation wavelength of λ=295 nm. The resultant fluorescence can be “quenched” by binding of porphyrins in spatial proximity to the tryptophan residues. This leads to a decrease of intrinsic fluorescence, which therefore provides a measure for the binding of a ligand. In order to optimize the experimental conditions for these quench measurements it was first necessary to evaluate the spectroscopic properties of the recombinant Hexahis-HEBP1.
Next, studies of the binding of hemin and protoporphyrin IX (PPIX) to human Hexahis-HEBP1 in the presence of eNOS transcription enhancers by tryptophan quenching were carried out. Binding studies with human HEBP1 are carried out using the intrinsic fluorescence of tryptophan residues that are contained. The fluorescence occurring at λ=340 nm after excitation with a wavelength of λ=295 nm can be “quenched” through the binding of porphyrins in proximity to the tryptophan residues. The measured fluorescence decreases as a function of the concentration of the ligands. Using nonlinear regression, it is possible to calculate the binding parameters.
Hemin and PPIX at concentrations from 30 nM to 10 μM were added to a buffered HEBP1 solution (500 nM) and after incubation for 10 min the tryptophan fluorescence was measured (FIG. 3). It was not possible to use higher porphyrin concentrations owing to the low solubility in aqueous systems.
The influence of the eNOS-transcription enhancers on tryptophan quenching by hemin was investigated next. In the experiments the recombinant human HEBP1 at a concentration of 500 nM was preincubated on ice for 30 min with the eNOS-substance 9257 versus DMSO-control in a binding buffer (pH 7.4) of HEPES (20 mM), sodium chloride (100 mM) and DTT (1 mM). Black, 96-well plates were used as the reaction vessel. Then hemin or protoporphyrin IX was added at varying concentrations through addition of the 200-fold concentrated DMSO stock solution and incubated for 10 min at room temperature. Finally, the tryptophan fluorescence was measured after previous optimization at λexc=295 nm and λem=340 nm in the Safire^2 microplate reader (Tecan Deutschland, Crailsheim, Germany).
First we investigated whether substance 9257 can quench the tryptophan fluorescence of HEBP1. […] Therefore the binding of 9257 was investigated indirectly through competition with hemin. For this, HEBP1 (500 nM) was preincubated with 9257 (10 μM) on ice, versus DMSO-control. After 30 min the hemin was added at varying concentrations of 0.1-10 μM and it was incubated at room temperature for a further 10 min before measuring the tryptophan fluorescence (FIG. 4).

[8] = B: A012 (100 μM) in the presence of unlabeled substance 9257 (25 μM)
[9] = 0.5 μM HEBP1, ligand 30 nM to 10 μM, 10 min, read-out: IC50 of tryptophan fluorescence quenching

T2 sequence (Q13131 whole entry): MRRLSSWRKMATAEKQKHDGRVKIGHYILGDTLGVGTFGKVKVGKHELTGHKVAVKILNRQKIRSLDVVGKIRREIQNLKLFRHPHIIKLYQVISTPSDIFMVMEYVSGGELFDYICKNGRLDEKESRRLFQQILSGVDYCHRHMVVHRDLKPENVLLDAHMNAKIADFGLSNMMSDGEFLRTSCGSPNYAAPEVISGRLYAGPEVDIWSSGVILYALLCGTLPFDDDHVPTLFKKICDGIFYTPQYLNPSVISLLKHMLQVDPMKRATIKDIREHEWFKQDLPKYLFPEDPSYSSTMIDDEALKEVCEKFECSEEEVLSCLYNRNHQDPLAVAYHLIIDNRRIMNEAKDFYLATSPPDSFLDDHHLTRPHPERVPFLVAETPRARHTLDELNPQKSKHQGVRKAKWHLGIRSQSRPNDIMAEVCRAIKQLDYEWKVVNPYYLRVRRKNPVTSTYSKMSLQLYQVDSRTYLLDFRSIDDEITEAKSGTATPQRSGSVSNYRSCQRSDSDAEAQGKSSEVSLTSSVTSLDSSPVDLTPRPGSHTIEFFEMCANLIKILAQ
T5 sequence (Q13164 whole entry): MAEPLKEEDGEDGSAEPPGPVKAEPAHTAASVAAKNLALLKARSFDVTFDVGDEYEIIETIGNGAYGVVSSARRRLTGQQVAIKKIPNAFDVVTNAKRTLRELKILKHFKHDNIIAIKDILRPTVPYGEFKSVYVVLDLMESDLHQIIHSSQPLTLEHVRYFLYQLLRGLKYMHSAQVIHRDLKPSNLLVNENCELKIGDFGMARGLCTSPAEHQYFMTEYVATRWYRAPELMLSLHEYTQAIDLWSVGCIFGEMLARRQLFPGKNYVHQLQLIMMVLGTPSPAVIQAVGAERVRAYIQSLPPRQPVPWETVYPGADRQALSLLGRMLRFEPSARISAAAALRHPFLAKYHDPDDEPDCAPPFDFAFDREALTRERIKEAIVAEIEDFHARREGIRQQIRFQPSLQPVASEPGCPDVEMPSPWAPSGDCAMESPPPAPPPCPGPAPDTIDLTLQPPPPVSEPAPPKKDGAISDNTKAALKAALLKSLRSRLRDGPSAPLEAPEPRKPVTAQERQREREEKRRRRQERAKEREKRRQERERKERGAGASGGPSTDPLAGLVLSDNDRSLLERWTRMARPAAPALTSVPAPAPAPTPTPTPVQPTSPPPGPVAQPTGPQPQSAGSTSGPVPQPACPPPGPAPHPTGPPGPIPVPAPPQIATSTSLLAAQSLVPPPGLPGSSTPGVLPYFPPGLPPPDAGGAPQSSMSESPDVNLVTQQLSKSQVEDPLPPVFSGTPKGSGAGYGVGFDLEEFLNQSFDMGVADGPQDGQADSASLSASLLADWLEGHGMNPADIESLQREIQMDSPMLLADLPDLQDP
T6 sequence (Q8NFW8 whole entry): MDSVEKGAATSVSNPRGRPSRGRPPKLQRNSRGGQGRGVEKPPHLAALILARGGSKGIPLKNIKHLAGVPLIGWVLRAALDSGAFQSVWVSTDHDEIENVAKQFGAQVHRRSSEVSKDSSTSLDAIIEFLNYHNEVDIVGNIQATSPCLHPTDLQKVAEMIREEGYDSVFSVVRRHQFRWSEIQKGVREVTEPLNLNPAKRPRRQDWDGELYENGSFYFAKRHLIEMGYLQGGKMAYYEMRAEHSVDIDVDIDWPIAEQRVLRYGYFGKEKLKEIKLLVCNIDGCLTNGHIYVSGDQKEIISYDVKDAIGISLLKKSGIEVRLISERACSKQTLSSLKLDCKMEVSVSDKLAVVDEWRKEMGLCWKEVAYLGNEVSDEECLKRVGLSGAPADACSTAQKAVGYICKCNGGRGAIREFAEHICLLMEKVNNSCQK

Fluorescence intensity A ([1]; A: A012 (100 μM)): 4987 | Fluorescence intensity B [1, 8]: 1333 | EC50 (eNOS promoter): 1200 nM | Fluorescence intensity A ([2]; A: A012 (100 μM)): 3791 | Fluorescence intensity B [2, 8]: 1206 | Fluorescence intensity A ([4]; A: A012 (100 μM)): 10788 | Fluorescence intensity B [4, 8]: 4083 | Fluorescence intensity A ([5]; A: A012 (100 μM)): 3151 | Fluorescence intensity B [5, 8]: 2269 | Fluorescence intensity A ([6]; A: A012 (100 μM)): 4775 | Fluorescence intensity B [6, 8]: 1135 | Fluorescence intensity A ([7]; A: A012 (100 μM)): 10411 | Fluorescence intensity B [7, 8]: 5028
Molecule: O=C(CCCC[C@@H]1SC[C@@H]2NC(=O)N[C@@H]21)NCCCCCC(=O)NCCOCCOc1ccc(C(=O)N[C@H]2CCCc3ccccc3C2)cc1 [A012]
labeling of protein duplicates on the microarray [3]: readily discernible

EC50 (eNOS promoter): > 10000 nM
Molecule: O=C(CCCC[C@@H]1SC[C@@H]2NC(=O)N[C@@H]21)NCCCCCC(=O)NCCOCCOc1ccc(C(=O)N[C@@H]2CCCc3ccccc3C2)cc1 [A013]
labeling of protein duplicates on the microarray [3]: no binding of the substance to the proteins

EC50 (eNOS promoter): 3000 nM
Molecule: O=C(NC1Cc2ccccc2C1)c1ccc(F)cc1 [AVE9488]

IC50 (human Hexahis-HEBP1; [9]): 13000 nM
Molecule: C=CC1=C(C)c2cc3[nH]c(cc4nc(cc5[nH]c(cc1n2)c(C)c5CCC(=O)O)C(CCC(=O)O)=C4C)c(C)c3C=C [PPIX, protoporphyrin IX]

IC50 (human Hexahis-HEBP1; [9]): 3000 nM | IC50 (human Hexahis-HEBP1; HEBP1 500 nM, DMSO-control, hemin 0.1-10 μM, read-out: IC50 of the hemin binding curve, DMSO-control): 1100 nM | potency of hemin relative to PPIX (human Hexahis-HEBP1; from IC50 values): 10 times
Molecule: hemin
